For orientation: IC50 means the concentration at which inhibition is half-maximal.

The text below walks through data of publication PMC11942905, “Identification of a Selective Inhibitor of Human NFS1, a Cysteine Desulfurase Involved in Fe-S Cluster Assembly, via Structure-Based Virtual Screening” (International Journal of Molecular Sciences, 2025).

The structures appear in SMILES notation. Entries after “also recorded” stand apart in the source; their conditions may differ.

The target in experiment [1] is T1, human NFS1 (Homo sapiens, UniProt Q9Y697).
T1 construct: His tag (N); made in house; host or cells: E. coli BL21(DE3)
T1 sequence (Q9Y697 56-457): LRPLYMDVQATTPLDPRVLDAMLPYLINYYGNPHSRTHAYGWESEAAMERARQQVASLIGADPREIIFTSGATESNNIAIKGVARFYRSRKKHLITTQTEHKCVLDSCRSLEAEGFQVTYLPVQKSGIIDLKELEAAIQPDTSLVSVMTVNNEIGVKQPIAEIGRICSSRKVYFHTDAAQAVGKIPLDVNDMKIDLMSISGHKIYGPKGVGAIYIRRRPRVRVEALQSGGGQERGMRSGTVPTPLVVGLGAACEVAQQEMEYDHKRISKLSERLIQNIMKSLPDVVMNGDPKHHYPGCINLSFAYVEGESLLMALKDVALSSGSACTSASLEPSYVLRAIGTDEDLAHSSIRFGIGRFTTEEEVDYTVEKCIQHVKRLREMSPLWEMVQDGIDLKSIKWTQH
More on the design: method as in PMID 36103522. To be noted: cited from earlier work.

For experiment [2], the system named is A549 cells. Nature of the experiment: CCK-8 cell viability assay, A549. The class given is cell-based, human. To be noted: for IC50: Homo sapiens, A549, CCK-8, 72 h. The protocol:
(§1) Human bronchial epithelial cells (BEAS-2B) and human lung adenocarcinoma A549 cells were purchased from the Institute of Biochemistry and Cell Biology, Chinese Academy of Sciences (Shanghai, China). BEAS-2B and A549 cells were cultured in DMEM supplemented with 10% (v/v) fetal bovine serum and 1% (v/v) penicillin–streptomycin solution at 37 °C in a humidified atmosphere containing 5% CO2. The half-maximal inhibitory concentration (IC50) values of the selected compounds against BEAS-2B and A549 cells were determined using the CCK-8 assay. Briefly, the cells were seeded into 96-well culture plates at a density of 5 × 10^3 cells per well. After 12 h of culture, fresh medium containing varying concentrations of the selected compounds dissolved in DMSO was added for an additional 72-hour incubation. Subsequently, 10 μL of CCK-8 solution was added to each well, followed by a further 1.5-h incubation at 37 °C. The optical density at 450 nm (OD450) for each well was measured using a microplate reader. Medium containing DMSO alone was used as the control group. Cell viability was calculated as the percentage of the OD450 of the experimental group compared to that of the control group, which was set at 100%.

In experiment [3] the target is T2, cystathionine-γ-lyase (CSE) (Homo sapiens, UniProt P32929).
T2 construct: made in house; host or cells: E. coli
T2 sequence (P32929 whole entry): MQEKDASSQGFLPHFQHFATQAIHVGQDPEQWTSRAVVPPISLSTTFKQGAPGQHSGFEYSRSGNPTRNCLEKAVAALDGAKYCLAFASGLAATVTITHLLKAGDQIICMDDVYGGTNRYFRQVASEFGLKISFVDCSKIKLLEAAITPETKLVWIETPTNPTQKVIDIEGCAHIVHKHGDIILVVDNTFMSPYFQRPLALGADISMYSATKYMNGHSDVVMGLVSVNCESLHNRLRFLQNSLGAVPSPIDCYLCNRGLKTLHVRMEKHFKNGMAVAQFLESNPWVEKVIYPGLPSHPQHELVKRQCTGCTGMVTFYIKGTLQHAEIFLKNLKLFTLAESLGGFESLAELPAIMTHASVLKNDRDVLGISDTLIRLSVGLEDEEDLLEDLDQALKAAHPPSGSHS
Nature of the experiment: Selectivity assay, H2S-producing activity of CSE. It is filed as biochemical. The settings on record: at 100 µM. How it is done:
(§2) To evaluate the selectivity of Compounds 53 and 56, their effects on the activities of two other PLP-dependent enzymes, human cystathionine-β-synthase (CBS) and cystathionine-γ-lyase (CSE), were determined using a H2S-producing assay. Human CBS and CSE were expressed and purified in E. coli with a purity exceeding 90%, as confirmed by SDS-PAGE (Figures S4A and S5A). Subsequently, the H2S-producing activities of CBS and CSE were assessed in the presence of different concentrations of Compounds 53 and 56. A widely used CBS inhibitor, AOAA, and a specific CSE inhibitor, PAG, were used as positive controls (Figures S4B and S5B).
(§3) The H2S-producing activity of CBS was measured as previously described. The reaction mixture (200 μL) contained 50 mM of Hepes buffer (pH 7.4), 2 mM of homocysteine, 10 μM of PLP, 0.4 mM of lead nitrate, and 5 μg of CBS protein. It was preincubated at 37 °C for 3 min, and the reaction was initiated by the addition of 2 mM of cysteine. The reaction was monitored in a multifunctional microplate reader at 37 °C for 10 min. An extinction coefficient of 5500 M^−1 cm^−1 at 390 nm was used to calculate the lead sulfide concentration. The method used to determine CSE activity in the H2S-producing assay was identical to the CBS assay, except that 1 mM of cysteine was used as the sole substrate. […]

The test system of another experiment is BEAS-2B cells. Nature of the experiment: CCK-8 cell viability assay, BEAS-2B. It is filed as cell-based. To be noted: Homo sapiens, CCK-8, 72 h. How it is done: as §1
For orientation: Tetrazolium assays rely on reduction of a dye to a coloured formazan, in cell work by metabolically active cells.

The target in experiment [4] is T3, human cystathionine-β-synthase (CBS) (Homo sapiens, UniProt P35520).
T3 construct: made in house; host or cells: E. coli
T3 sequence (P35520 1-551): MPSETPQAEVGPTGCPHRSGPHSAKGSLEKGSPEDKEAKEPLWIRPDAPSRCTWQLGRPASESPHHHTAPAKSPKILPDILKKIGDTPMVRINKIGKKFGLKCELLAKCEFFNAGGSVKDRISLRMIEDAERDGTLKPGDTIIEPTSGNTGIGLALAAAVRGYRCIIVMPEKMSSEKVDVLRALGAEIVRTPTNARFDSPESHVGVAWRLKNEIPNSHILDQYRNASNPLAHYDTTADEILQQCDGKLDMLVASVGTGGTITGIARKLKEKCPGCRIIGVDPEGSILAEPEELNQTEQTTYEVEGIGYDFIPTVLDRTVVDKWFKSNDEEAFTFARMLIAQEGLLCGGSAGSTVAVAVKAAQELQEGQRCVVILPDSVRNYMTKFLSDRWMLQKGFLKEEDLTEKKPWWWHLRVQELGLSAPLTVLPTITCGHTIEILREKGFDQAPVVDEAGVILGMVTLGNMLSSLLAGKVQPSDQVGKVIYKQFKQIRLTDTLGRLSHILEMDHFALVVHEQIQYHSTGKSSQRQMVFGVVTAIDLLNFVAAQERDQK
Nature of the experiment: Selectivity assay, H2S-producing activity of CBS. It is filed as biochemical. The settings on record: at 100 µM. The protocol: as §2, §3

Experiment [5] has as its target T1, human NFS1. The experiment in a line: NFS1 inhibition assay (H2S-producing, methylene blue). It is filed as biochemical. To be noted: for inhibition of NFS1: at 100 µM; for IC50: recombinant human NFS1Δ1-55, 1 mM cysteine, n = 4, read-out: IC50, NFS1 activity. How it is done: The 42 candidate compounds were tested for their inhibitory effects on human NFS1 using an in vitro H2S-producing assay. […] Subsequently, the effects of the selected compounds (100 µM) on human NFS1 activity were evaluated.
The activity of NFS1 was determined using a methylene blue assay as described previously, with some modifications. Briefly, reaction mixtures (200 μL) containing 50 mM of Tris-HCl (pH 8.0), 10 μM of PLP, 1 mM of DTT, and 10 μg of NFS1 were preincubated at 37 °C for 3 min. The reaction was then initiated by adding 1 mM of cysteine. After 15 min of incubation at 37 °C, the reaction was quenched by adding 25 μL of 20 mM N,N-dimethyl-p-phenylenediamine in 7.2 M of HCl and 25 μL of 30 mM FeCl3 in 1.2 M of HCl. Subsequently, the reaction mixtures were incubated for another 15 min at 37 °C, followed by centrifugation at 12,000 rpm for 10 minutes to remove the precipitates. The absorbance of the supernatant was measured at 670 nm. A reaction mixture without the substrate cysteine was used as the negative control. The H2S concentration was calculated based on a standard curve prepared using various concentrations of sodium sulfide (Na2S).
For the NFS1 inhibition assays, all test compounds were dissolved in dimethyl sulfoxide (DMSO) to prepare 10 mM stock solutions, which were stored at −80 °C. The stock solutions were diluted to the appropriate concentrations with 50 mM of Tris-HCl (pH 8.0) as required for the experiments. A reaction mixture containing DMSO but no test compounds was used as a negative control. The dose-dependent effects of the inhibitors on NFS1 activity were determined using the methylene blue assay described above. The IC50 values of the inhibitors were calculated by adding different concentrations of the inhibitors to the enzyme reaction mixtures.

The subject of experiment [6] is A549 cells. The experiment in a line: Lipid peroxide (LPO) content. The class given is cell-based, human. To be noted: 48 h, Erastin 2.5 µM, Compound 53 50 µM, 2-AAPA 20 µM, alone or combined. How it is done:
A549 cells were seeded in 10 cm dishes at a density of 2 × 10^6 cells per dish and cultured until they reached 40–60% confluence. […] Lipid peroxidation (LPO) levels were measured using a Lipid Peroxide (LPO) Content Assay Kit (Solarbio, China) following the manufacturer’s instructions.

Experiment [7] concerns A549 cells. Nature of the experiment: Endogenous ROS levels, DCFH-DA fluorescence. It is filed as cell-based, human. To be noted: 48 h, Compound 53 50 µM, Erastin 2.5 µM, 2-AAPA 20 µM. The protocol: Endogenous ROS levels in A549 cells were detected using the fluorescent dye DCFH-DA [48, 49]. A549 cells were cultured in DMEM supplemented with 10% fetal bovine serum at 37 °C in a humidified atmosphere containing 5% CO2. […] Subsequently, the cells were washed three times with prewarmed PBS, and fresh medium containing 10 μM of DCFH-DA was added. After 30 min of incubation, the cells were washed again with prewarmed PBS, fresh medium was added, and the cells were imaged using an inverted fluorescence microscope (Leica, Wetzlar, Germany). Images of live cells were acquired in six different fields. ImageJ software was used to analyze the images.

Experiment [8] concerns cysteine desulfurase activity of Plasmodium falciparum. More on the design: method as in PMID 24709262. The settings on record: cited from earlier work.

Consider `COCC1(CO)C(=O)C2CCN1CC2` (stereo not shown) [APR-246, eprenetapopt], for which, at human NFS1 [1], the “concentrations required to inhibit NFS1” value is “millimolar concentrations”.

Take `COc1cc(/C=N/NC(=O)CSc2nnc(SCc3ccccc3)s2)cc(OC)c1O` [Compound 56]: the IC50 in the experiment on A549 cells [2] came out at 27.7 ± 1.99 µM; in the experiment on BEAS-2B cells, 78.4 ± 2 µM. Moreover, the “inhibitory effect on CSE” value in [3] is on record as “no significant inhibitory effects”. In addition, the “inhibitory effect on CBS” value in [4] is reported as “no significant inhibitory effects”.

For `COc1cc(/C=N\NC(=O)Cc2nnc(NC(=O)c3ccc([N+](=O)[O-])cc3)s2)ccc1O` [Compound 1], at human NFS1 [5], the “inhibition of NFS1” value is recorded as “approximately 50%” and the IC50 was determined as 153 ± 3.42 µM.

As for `CC(=O)NC(CSC(=O)Nc1ccc(NC(=O)SCC(NC(C)=O)C(=O)O)cc1)C(=O)O` (stereo not shown) [Compound 2-AAPA, 2-Acetylamino-3-[4-(2-acetylamino-2-carboxyethylsulfanylcarbonylamino)phenylcarbamoylsulfanyl] propionic acid], in the experiment with A549 cells [6], the “intracellular lipid peroxide (LPO) levels” value is given as “no significant changes”. The IC50 in the experiment with A549 cells [2] was ~20 µM. In the experiment with A549 cells [7], the “intracellular ROS levels” value was “significantly elevated cellular ROS levels”.

For the compound `O=c1cc(-c2ccc(O)c(O)c2)oc2cc(O[C@H]3O[C@H](CO)[C@@H](O)[C@@H](O)[C@@H]3O)cc(O)c12` [Compound 37], at human NFS1 [5], the “inhibition of NFS1” value was “approximately 50%” and the IC50 was 141 ± 3.49 µM.

With `N[C@@H]1CON=C1O` [D-cycloserine], in experiment [8], the IC50 was ~29 µM.

Consider `CCOc1ccccc1-n1c(C(C)N2CCN(C(=O)COc3ccc(Cl)cc3)CC2)nc2ccccc2c1=O` (stereo not shown) [Erastin], for which the “intracellular lipid peroxide (LPO) levels” value with A549 cells [6] is “elevated LPO levels”. The “effect on cell viability” value in the experiment on A549 cells [2] (A549 cells, 2.5 µM) is on record as “did not significantly affect cell viability”. Also, in the experiment with A549 cells [7], the “intracellular ROS levels” value is given as “significantly increased intracellular ROS levels; also recorded: significantly elevated cellular ROS levels”.
